Test results as given in patent US20120115175A1, “METHODS FOR DIAGNOSING ELEVATED RIGHT OR LEFT VENTRICULAR FILLING PRESSURE” (Tufts Medical Center, Inc., priority 2010, published 2012).
Numbered stars: 1 amine (or outer) side, 2 acyl side, 3 side chain; on linkers, the order of the positions; unused ones are H or OH. Bridge positions count the residues as written; N and C are the ends. Square brackets hold non-standard residues; d marks the D form. Peptide text beside a SMILES is read from it. I, II: the chains in the order shown. Actinocin(9to1) = Cc1c2oc3c(C)ccc(C(=O)[*:1])c3nc-2c(C(=O)[*:2])c(N)c1=O; NMeV = CN[C@H](C(=O)O)C(C)C; Sar = CNCC(=O)O

System: human cardiac fibroblasts (hCF)
Experiment: Cyclic mechanical stretch of human cardiac fibroblasts: endoglin mRNA (qRT-PCR), endoglin protein (Western blot), sEng release (ELISA)
Type: cell-based
Details: for stretch-induced endoglin mRNA expression: pre-treated 1 μM for 2 hours prior to mechanical stretch (10% cyclic stretch, 1 Hz), qRT-PCR
Protocol: As a first step towards understanding increased endoglin expression in heart failure, we exposed cardiac fibroblasts to cyclic mechanical stretch in vitro using a FlexCell apparatus. Briefly, human cardiac fibroblasts (hCF) were cultured onto silastic membranes and exposed to 10% cyclic stretch (1 Hz) for various time points in fibroblast basal media (FBM). We identified a rapid increase in sEng release by enzyme-linked immunosorbent assay (ELISA), followed by increased endoglin mRNA expression by quantitative real-time PCR (qRT-PCR) (FIG. 7).
To begin exploring the mechanism underlying stretch-induced endoglin expression, we pre-treated cultured hCF in FBM with actinomycin-D (Act-D; 1 μM), SB-431542 (an ALK-5 inhibitor; 1 μM), or anti-TGFβ1 antibodies (10 ng/mL, R&D Systems) for 2 hours prior to mechanical stretch. […] Furthermore, ERK-inhibition with 10 μM PD98059 attenuated stretch-induced mEng protein expression and sEng release by Western blot and ELISA (FIG. 9).

[1] = hCF in FBM, pre-treated 1 μM for 2 hours prior to mechanical stretch, ELISA

SMILES	stretch-induced sEng release (hCF, 10 μM, ELISA)	stretch-induced mEng protein expression (hCF, 10 μM, Western blot)	endoglin protein expression (hCF in FBM, pre-treated 1 μM for 2 hours prior to mechanical stretch)	stretch-induced endoglin mRNA expression (hCF in FBM)	sEng release [1]
COc1cccc(-c2cc(=O)c3ccccc3o2)c1N [PD98059]	attenuated	attenuated			
Cc1c2oc3c(C)ccc(C(=O)N[C@@H]4C(=O)N[C@H](C(C)C)C(=O)N5CCC[C@H]5C(=O)N(C)CC(=O)N(C)[C@@H](C(C)C)C(=O)O[C@@H]4C)c3nc-2c(C(=O)N[C@@H]2C(=O)N[C@H](C(C)C)C(=O)N3CCC[C@H]3C(=O)N(C)CC(=O)N(C)[C@@H](C(C)C)C(=O)O[C@@H]2C)c(N)c1=O [Act-D, actinomycin-D] (I: T[dV]P[Sar][NMeV] / II: T[dV]P[Sar][NMeV]; ester I:1-I:C, II:1-II:C; linker I:N-II:N via Actinocin(9to1))			minimal effect	abolished	minimal effect
NC(=O)c1ccc(-c2nc(-c3ccc4c(c3)OCO4)c(-c3ccccn3)[nH]2)cc1 [SB-431542]				partially attenuated	failed to inhibit
